In ChEMBL document CHEMBL1130983, “New acetylene based histamine H3 receptor antagonists derived from the marine natural product verongamine” (Bioorg Med Chem Lett, 1998):

Tests used:
Cavia porcellus = species: Cavia porcellus; test: In vitro activity on K+ induced R-alpha methyl histamine mediated inhibition of norepinephrine release from guinea pig cardiac synaptosomes; format: functional
Rattus norvegicus = species: Rattus norvegicus; test: Effective dose was evaluated for blood brain penetration using ex vivo binding techniques; format: functional
Histamine H3 receptor [1] = target: T1, Histamine H3 receptor (Rattus norvegicus, UniProt Q9QYN8); test: Antagonistic activity was evaluated against histamine H3 receptor using [3H]- N-alpha-methylhistamine as radioligand in experiment 2; format: functional
Histamine H3 receptor [2] = target: T1, Histamine H3 receptor; test: Inhibition of [3H]- N-alpha-methylhistamine from histamine H3 receptor

T1 sequence (Q9QYN8 whole entry): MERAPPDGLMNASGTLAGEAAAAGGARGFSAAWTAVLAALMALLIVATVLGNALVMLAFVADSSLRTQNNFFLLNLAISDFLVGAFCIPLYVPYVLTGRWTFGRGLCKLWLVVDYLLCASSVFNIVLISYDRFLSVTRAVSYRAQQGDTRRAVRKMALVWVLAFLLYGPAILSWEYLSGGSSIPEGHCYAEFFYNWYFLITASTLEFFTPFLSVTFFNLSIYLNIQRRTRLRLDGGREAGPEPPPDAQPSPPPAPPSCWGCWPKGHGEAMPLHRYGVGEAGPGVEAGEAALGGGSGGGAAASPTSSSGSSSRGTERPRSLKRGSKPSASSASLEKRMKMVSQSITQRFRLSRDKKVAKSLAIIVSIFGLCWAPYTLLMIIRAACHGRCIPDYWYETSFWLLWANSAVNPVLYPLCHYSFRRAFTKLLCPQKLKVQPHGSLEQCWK

## C(#CCCC1CCCCC1)CCc1c[nH]cn1
Cavia porcellus
  Release: 122%
Rattus norvegicus
  ED50: 0.43 mg/kg

## S=C(NC1CCCCC1)N1CCC(c2cnc[nH]2)CC1 [THIOPERAMIDE]
Histamine H3 receptor [1]
  Ki: 1.54 nM

## C(#CCCC1CCCC1)CCc1c[nH]cn1
Cavia porcellus
  Release: 111%
Rattus norvegicus
  ED50: 0.48 mg/kg

## COc1ccc(C/C(=N\O)C(=O)NCCc2c[nH]cn2)cc1Br [VERONGAMINE]
Histamine H3 receptor [2]
  Ki: 0.5 nM

## Cn1cncc1CCN
Histamine H3 receptor [2]
  Ki: 1 nM
Cavia porcellus
  Release: 106%
